Measured values as given in ChEMBL document CHEMBL1143705, “Cytotoxic dibromotyrosine-derived metabolites from the sponge Aplysina gerardogreeni” (2007).

Experiments:
Assay type in all cases: functional
Conditions in all cases: for CC50: read-out: LC50 (the source's name)
MDA-MB-231 = test: Cytotoxicity against human MDA-MB-231 cells by SRB assay
A549 = test: Cytotoxicity against human A549 cells by SRB assay
HT-29 = test: Cytotoxicity against human HT29 cells by SRB assay

Structure (SMILES) | GI50 (MDA-MB-231) | TGI (MDA-MB-231) | CC50 (MDA-MB-231) | GI50 (A549) | TGI (A549) | CC50 (A549) | GI50 (HT-29) | TGI (HT-29) | CC50 (HT-29)
COC1=C(Br)[C@H](O)[C@@]2(C=C1Br)CC(C(=O)NCCCCCNC(=O)C1=NO[C@]3(C=C(Br)C(OC)(OC)[C@@H](Br)[C@@H]3O)C1)=NO2 | 4.2 µM | 6 µM | 9.6 µM | 7.1 µM | > 10 µg/mL | > 10 µg/mL | 4.8 µM | > 10 µg/mL | > 10 µg/mL
O=C(NCCCCCNC(=O)C1=NO[C@]2(C=C(Br)C(=O)[C@H](Br)[C@@H]2O)C1)C1=NO[C@]2(C=C(Br)C(=O)[C@H](Br)[C@@H]2O)C1 | 1.7 µM | 2.4 µM | 3.5 µM | 2.4 µM | 3.5 µM | 5.5 µM | 1.6 µM | 2.5 µM | 3.7 µM
COC1=C(Br)[C@H](O)[C@@]2(C=C1Br)CC(C(=O)NCCCCCNC(=O)C1=NO[C@]3(C=C(Br)C(=O)[C@H](Br)[C@@H]3O)C1)=NO2 | 3.5 µM | 4.9 µM | 6.7 µM | 5.4 µM | 8.7 µM | 11.2 µM | 4.8 µM | 5 µM | 5.4 µM
COC1=C(Br)[C@H](O)[C@@]2(C=C1Br)CC(C(=O)NCCCCNC(=O)C1=NO[C@]3(C=C(Br)C(=O)[C@H](Br)[C@@H]3O)C1)=NO2 | 2.9 µM | 4.7 µM | 8 µM | 5.6 µM | > 10 µg/mL | > 10 µg/mL | 3.4 µM | 4.9 µM | 8.5 µM
COC1(OC)C(Br)=C[C@@]2(CC(C(=O)NCCCCCNC(=O)C3=NO[C@]4(C=C(Br)C(OC)(OC)[C@@H](Br)[C@@H]4O)C3)=NO2)[C@@H](O)[C@@H]1Br | > 10 µg/mL | > 10 µg/mL | > 10 µg/mL | > 10 µg/mL | > 10 µg/mL | > 10 µg/mL | > 10 µg/mL | > 10 µg/mL | > 10 µg/mL
COC1=C(Br)[C@H](O)[C@@]2(C=C1Br)CC(C(=O)NCCCCNC(=O)C1=NO[C@]3(C=C(Br)C(OC)=C(Br)[C@@H]3O)C1)=NO2 [AEROTHIONIN] | > 10 µg/mL | > 10 µg/mL | > 10 µg/mL | > 10 µg/mL | > 10 µg/mL | > 10 µg/mL | > 10 µg/mL | > 10 µg/mL | > 10 µg/mL
COC1=C(Br)[C@H](O)[C@@]2(C=C1Br)CC(C(=O)NCCCCCNC(=O)C1=NO[C@]3(C=C(Br)C(=O)[C@@H](Br)[C@@H]3O)C1)=NO2 [APLYSINONE A] | 3.3 µM | 5.4 µM | 8.2 µM | 4.5 µM | 7.1 µM | > 10 µg/mL | 2.8 µM | 4.8 µM | 9.1 µM
O=C(NCCCCCNC(=O)C1=NO[C@]2(C=C(Br)C(=O)[C@@H](Br)[C@@H]2O)C1)C1=NO[C@]2(C=C(Br)C(=O)[C@@H](Br)[C@@H]2O)C1 [APLYSINONE B] | 1.6 µM | 2.1 µM | 3 µM | 2 µM | 2.9 µM | 4.1 µM | 1.5 µM | 2.1 µM | 3 µM
COC1=C(Br)[C@H](O)[C@@]2(C=C1Br)CC(C(=O)NCCCCCNC(=O)C1=NO[C@]3(C=C(Br)C(=O)[C@@H]4O[C@@H]43)C1)=NO2 [APLYSINONE C] | 5.6 µM | 5.8 µM | 6.4 µM | 10.7 µM | > 10 µg/mL | > 10 µg/mL | 12.6 µM | > 10 µg/mL | > 10 µg/mL
COC1=C(Br)[C@H](O)[C@@]2(C=C1Br)CC(C(=O)NCCCCNC(=O)C1=NO[C@]3(C=C(Br)C(=O)[C@@H](Br)[C@@H]3O)C1)=NO2 [APLYSINONE D] | 3.5 µM | 5 µM | 7.6 µM | 5.7 µM | > 10 µg/mL | > 10 µg/mL | 4.1 µM | 5.2 µM | 11.3 µM
COc1cccc2c1C(=O)c1c(O)c3c(c(O)c1C2=O)C[C@@](O)(C(=O)CO)C[C@@H]3O[C@H]1C[C@H](N)[C@H](O)[C@H](C)O1 [DOXORUBICIN] | 0.1 µM | 0.3 µM | 1.4 µM | 0.1 µM | 0.2 µM | 1 µM | 0.1 µM | 0.3 µM | 0.4 µM
COC1=C(Br)[C@H](O)[C@@]2(C=C1Br)CC(C(=O)NCCCCCNC(=O)C1=NO[C@]3(C=C(Br)C(OC)=C(Br)[C@@H]3O)C1)=NO2 [HOMOAEROTHIONIN] | > 10 µg/mL | > 10 µg/mL | > 10 µg/mL | > 10 µg/mL | > 10 µg/mL | > 10 µg/mL | > 10 µg/mL | > 10 µg/mL | > 10 µg/mL
